Test results published in publication PMC10508264, “Exploring the antioxidant, antimicrobial, cytotoxic and biothermodynamic properties of novel morpholine derivative bioactive Mn(II), Co(II) and Ni(II) complexes – combined experimental and theoretical measurements towards DNA/BSA/SARS-CoV-2 3CL^Pro” (RSC Medicinal Chemistry, 2023).

How the values were obtained:
[1] = target: BSA (Bos taurus, UniProt P02769); assay: FRET computation, donor (BSA)–acceptor (compound); type: binding, bovine; design: kET (rate of energy transfer): unit not given here; settings: for B (average brightness of complex–BSA system): free BSA 6573.60
From the text: The critical distance between donor and acceptor molecules can be estimated using the FRET approach to assess the binding affinity between BSA and a test substance.[13,33–35]
FRET is a non-destructive spectroscopic method consisting of a process between several electronic excited states of molecules that is dependent on distance (r). FRET can also be employed to distinguish the relative angular orientation and closeness of fluorophores.[82] The process happens when there is a large overlap between the absorption spectrum acceptor (compound/chromophore) and the donor's emission spectrum (BSA/fluorophore) (Fig. S30 ^†). Also, the average distance (r) between the donor and acceptor can be measured in accordance with this theory. Fluorescence is quenched due to energy being transmitted from the excited state of BSA to the substances (HL)/(1–3). As a result of the FRET analysis, the observed r findings were in the range of 2.4127–2.7129 nm (Table 5 and Fig. S30 ^†). […] The following conditions have a major impact on the effectiveness of FRET: (i) the distance (r) should be in the prescribed range of 2–8 nm for energy transfer; (ii) there is a large overlap between the emission spectrum of biomolecules (donors) and the electronic absorption spectrum of acceptors (substances); and (iii) the BSA and compound transition dipoles are oriented correctly. BSA transmits excitation energy to a compound during FRET without emitting a photon from the previous molecule system. Energy transfer (E) results were acquired from eqn (18) (Table 5). K^2 is associated with the geometry of the BSA and complex of the dipoles, the value for random orientation (K2 = 2/3) as in a fluid solution. Basically, the K^2 values were found in the range from 0 to 4, and energy can be transferred from BSA to the compound when electrons are transferred between the two molecules. For parallel transition dipoles that are aligned, K^2 is equal to 4, which denotes maximal energy transfer; and when the orientation of the dipoles is perpendicular to one another, K^2 is equal to 0, which denotes very weak energy transfer. When the relative orientation of the dipoles is random, K^2 is equal to 2/3. Eqn (20) is helpful for measuring the J values for overlap of the emission spectrum of BSA with the electronic absorption spectrum of the compound. The molar absorption coefficient (εA) and fluorescence emission intensity were both measured on the unit area scale of wavenumbers. It is imperative that J, after being normalized, is independent of the real size of εA. The following variables for the complex–BSA interaction are determined using eqn (18)–(23), n = 1.36, Φ = 0.15, E = 0.3462–0.5692, J = 0.8215–1.0886 × 10^−14 cm^3 L mol^−1, R0 = 2.4400–2.5573 nm, r = 2.4127–2.7129 nm, kET = 5.2941–13.2142 J s^−1 and B = 5339.79–6007.23 mol^−1 cm^−1 (Table 5). The observed values of R0 and r between BSA Trp213 and the interacting compound were substantially smaller than 8 nm and their relationships are found in the following sequence: 0.5R0 (1.2200–1.2786) < r (2.4127–2.7128) < 1.5R0 (3.6601–3.8358). […] Also, τ is denoted as the lifetime of fluorescence emission of the biomolecule and is described as the inverse of the entire degradation rate τ = 1/(kr + knr). The radiative lifetime of the fluorophore is represented as τ0 = 1/kr. The values of τ and Φ are associated with eqn (21) (Table 5). Quenching occurs when the ground or excited states of BSA come into contact with a compound in the solution. The intensity of fluorescence emission is also decreasing. Quenching is divided into the two main categories of dynamic and static quenching. While BSA is in an excited state, it binds with the substance during a dynamic or collisional quenching mechanism, and is then deactivated to the ground state without the emission of radiation. Therefore, the concentration of the quenching compounds affects dynamic quenching. The τ and Φ values for BSA diminish with an increase in the compound concentration. […]

[2] = tested on: MCF-7; assay: MTT cell viability assay, MCF-7; type: cell-based, human; settings: MCF-7, 72 h of exposure

| SMILES | E (efficiency of energy transfer) [1] | J (spectral overlap integral) [1] | R0 (Förster radius) [1] | kET (rate of energy transfer) [1] | r (donor–acceptor distance) [1] | B (average brightness of complex–BSA system) [1] | IC50 [2] | IC50 ([2]; Homo sapiens, MCF7) |
| --- | --- | --- | --- | --- | --- | --- | --- | --- |
| [Mn+2].[O-]c1ccccc1N=Cc1ccc(N2CCOCC2)cc1.[O-]c1ccccc1N=Cc1ccc(N2CCOCC2)cc1.c1ccc(-c2ccccn2)nc1 [(1)] | 0.4462 | 1.0886 × 10^−14 (LM^−1 cm^3) | 2.5573 nm | 8.0556 | 2.6511 nm | 6007.23 M⁻¹ cm⁻¹ | 36.6 ± 1.8 µM |  |
| [Co+2].[O-]c1ccccc1N=Cc1ccc(N2CCOCC2)cc1.[O-]c1ccccc1N=Cc1ccc(N2CCOCC2)cc1.c1ccc(-c2ccccn2)nc1 [(2)] | 0.5000 | 1.0201 × 10^−14 (LM^−1 cm^3) | 2.5297 nm | 10.000 | 2.5297 nm | 5835.99 M⁻¹ cm⁻¹ | 35.9 ± 1.8 µM |  |
| [Ni+2].[O-]c1ccccc1N=Cc1ccc(N2CCOCC2)cc1.[O-]c1ccccc1N=Cc1ccc(N2CCOCC2)cc1.c1ccc(-c2ccccn2)nc1 [(3)] | 0.5692 | 1.0145 × 10^−14 (LM^−1 cm^3) | 2.5274 nm | 13.2142 | 2.4127 nm | 5822.04 M⁻¹ cm⁻¹ | 34.5 ± 1.7 µM |  |
| Oc1ccccc1N=Cc1ccc(N2CCOCC2)cc1 [(HL), 2-(4-morpholinobenzylideneamino)phenol] | 0.3462 | 0.8215 × 10^−14 (LM^−1 cm^3) | 2.4400 nm | 5.2941 | 2.7129 nm | 5339.79 M⁻¹ cm⁻¹ |  | 105 ± 5.3 µM |
